Laboratory results published in article PMC9366811, “Antiviral activity of natural phenolic compounds in complex at an allosteric site of SARS-CoV-2 papain-like protease” (Communications Biology, 2022).
Read-outs that look alike come from different tables or passages of the source.

How the values were obtained:
[1] = target: SARS-CoV-2 main protease (Mpro) (Severe acute respiratory syndrome coronavirus 2, UniProt P0DTC1); test: FRET-based Mpro inhibition assay; format: biochemical; details: substrate 2-AbzSAVLQSGTyr(3-NO2)R-OH, incubated with Mpro for 30 minutes
Experimental: Activity assays were performed for SARS-CoV-2 Mpro[16],[71] utilizing the three natural compounds, aiming to characterize the specificity of the compounds towards PLpro. The assays were performed applying a total reaction volume of 50 µL using non-binding, black bottom, 96-well plates and the relative fluorescence was measured utilizing a Tecan Infinite M plus plate reader (Tecan Group Ltd, Switzerland) using optical settings specific for the substrate 2-Abz[…]yr(3-NO2)R-OH (Biotrend). The corresponding fluorophore has an excitation and emission at 355 nm and 460 nm wavelength respectively. The substrate and Mpro were used at a final concentration of 5 µM and 75 nM respectively. The known Mpro inhibitor (GC-376) was used as positive control throughout the assay. SARS-CoV-2 Mpro and substrates were diluted in assay buffer (20 mM Tris-HCl pH 7.3, 150 mM NaCl, 1 mM EDTA, 1 mM DTT) and reactions were initiated upon addition of Mpro in a final volume of 50 µL and were measured at 25 °C. The three compounds were incubated prior to the experiments with Mpro at 10 °C for 6 h, as accomplished also for the PLpro activity assays. Fluorescence values were measured for 15 min with one read out per minute. […]
311 with Mpro for 6h at 10 °C and fluorescence was measured for 15 min with read - […]
318 were incubated with the Mpro for 30 minutes. The IC50 values were calculated by […]

[2] = target: T1, SARS-CoV-2 PLpro (Severe acute respiratory syndrome coronavirus 2, UniProt P0DTC1); format: biochemical; details: compound at 50 µM, compared with ISG15-Rhodamine substrate
[3] = target: T1, SARS-CoV-2 PLpro; test: biochemical; details: for inhibition at 50 µM: compound at 50 µM, 10 nM PLpro, ISG15-Rhodamine 100 nM, preincubation 6 h at 10 °C, read-out: % Inhibition of PLpro deISGylation activity
[4] = target: PLpro (Severe acute respiratory syndrome coronavirus 2, UniProt P0DTC1); test: nanoDSF fluorescence titration (quenching of PLpro fluorescence); format: binding, SARS-CoV-2
[5] = system: SARS-CoV-2; test: microbe, parasite or virus in culture; format: cell-based; details: Vero cells, MOI 0.01, 42 h, CellTiter-Glo; for IC50: read-out: IC50 CPE inhibition
[6] = system: Vero cell lines (ATCC CCL-81)
[7] = system: SARS-CoV-2; test: Antiviral activity assay in Vero cells, viral RNA by qRT-PCR; format: cell-based; details: Severe acute respiratory syndrome coronavirus 2, MOI 0.01, qRT-PCR, 42 h post-infection, read-out: IC50 Antiviral cell assay (reduction of viral RNA replication)

Row | SMILES | IC50 [1] [µM] | inhibition of PLpro with Ub-Rhodamine as substrate [2] | IC50 [3] [µM] | inhibition at 50 µM [3] [%] | Kd [4] [µM] | IC50 CPE inhibition [5] | cell toxicity at 100 µM [6] | Kd ([4]; nanoDSF fluorescence titration, 50 μM PLpro, 0.5% DMSO, depending on the emission wavelength used (330/350 nm), read-out: Kd) [µM] | IC50 [7] [µM] | IC50 ([5]; Severe acute respiratory syndrome coronavirus 2, Vero, 42 h) [µM] | IC50 [5] [µM]
1 | CC(C)C[C@H](NC(=O)OCc1ccccc1)C(=O)N[C@@H](CC1CCNC1=O)C(O)S(=O)(=O)O (some centres unmarked) [GC-376] | 1.1 |  |  |  |  |  |  |  |  |  | 
2 | O=Cc1ccc(O)cc1 [HBA, 4-hydroxybenzaldehyde] |  | not as pronounced | 3.99 ± 1.33 | ~73 | ~400 | unable to fit a sigmoidal curve |  |  |  |  | 
3 | COC(=O)c1ccc(O)c(O)c1 [HE9, methyl 3,4-dihydroxybenzoate] |  |  |  |  |  |  | no associated cell toxicity | 1000 | 0.13 | 10.4 | 10
4 | OCCc1ccc(O)cc1 [YRL, 4-(2-hydroxyethyl)phenol] |  | not as pronounced | 6.68 ± 1.2 | ~70 |  | unable to fit a sigmoidal curve | no associated cell toxicity |  | 1 |  | 
